Source: US10126303B2, “Methods for identifying compounds as modulators of SLC38A9 interactions” (Whitehead Institute for Biomedical Research, priority 2014, dated 2018)
≈ marks a conversion by molar mass, not a printed value. Each block holds one molecule with its values, some of them ahead of it.

Experiments:
[1] = system: mTORC1; assay: Amino acid-induced activation of the mTORC1 pathway in SLC38A9-null HEK-293T cells (immunoblot); format: cell-based; settings: CRISPR/CAS9 knockout, starved 50 min, stimulated 10 min, range of concentrations
Experimental: FIGS. 5A-SE depict the results of experiments arginine and related immunoblots depicting impairment of induced activation of the mTORC1 pathway. FIG. 5A depicts the time dependent uptake of [^3H]-arginine by proteoliposomes containing SCL38A9.1. FIG. SB, left panel, depicts the time course of [^3H]arginine uptake, given fixed [^3H]arginine (0.5 μM) and increasing concentrations of unlabeled arginine. FIG. 5B, right panel, depicts velocity, calculated from left panel, as a function of total arginine concentration. Data were fitted to the Michaelis-Menton equation. FIG. 5C depicts the time-dependent efflux of SLC38A9.1 proteoliposomes following 1.5 hr loading with 0.5 μM [^3H]arginine. FIG. 5D depicts the competition of 0.5 μM [^3H]arginine transport by SLC38A9.1 using 100 mM of indicated unlabeled amino acids. The error bars in FIGS. 5A-5D represent standard deviation derived from at least 3 measurements. […]
HEK-293T cells (750,000/well) were plated into 6 well dishes and transfected 16 hours later with 1 μg of pX459 expressing above guides using XtremeGene9. […] Clones were expanded and evaluated for knockout status by western analysis for SLC38A9. These clones were evaluated for amino acid response as described above.

[2] = target: T1, SLC38A9.1 (Homo sapiens, UniProt Q8NBW4); assay: Competition of [3H]arginine transport by SLC38A9.1 proteoliposomes using unlabeled amino acids; format: biochemical; settings: 0.5 μM [3H]arginine; 100 mM unlabeled amino acid; 75 min
T1 construct: made in house; host or cells: HEK-293T cells stably expressing FLAG-SLC38A9.1
T1 sequence (Q8NBW4 1-561): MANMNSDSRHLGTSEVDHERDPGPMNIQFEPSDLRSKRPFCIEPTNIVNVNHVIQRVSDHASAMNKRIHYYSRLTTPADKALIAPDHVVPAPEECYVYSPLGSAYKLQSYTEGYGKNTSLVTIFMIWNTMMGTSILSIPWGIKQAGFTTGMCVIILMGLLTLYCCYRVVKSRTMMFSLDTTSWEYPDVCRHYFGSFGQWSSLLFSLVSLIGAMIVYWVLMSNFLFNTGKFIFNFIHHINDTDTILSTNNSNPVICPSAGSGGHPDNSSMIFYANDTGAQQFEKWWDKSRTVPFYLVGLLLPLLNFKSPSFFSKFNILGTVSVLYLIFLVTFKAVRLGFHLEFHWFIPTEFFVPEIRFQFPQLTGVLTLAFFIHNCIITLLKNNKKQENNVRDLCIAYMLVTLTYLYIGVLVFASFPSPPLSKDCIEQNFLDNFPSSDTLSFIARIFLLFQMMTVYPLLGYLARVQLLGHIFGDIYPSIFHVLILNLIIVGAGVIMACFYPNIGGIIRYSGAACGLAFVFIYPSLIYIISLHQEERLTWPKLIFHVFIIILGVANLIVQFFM
Experimental: (§1) SLC38A9.1 proteoliposomes or liposome controls were centrifuged at 100,000 g for 30 min. in a TLA-100.3 rotor and resuspended in a smaller volume of outside buffer such that they could be added to a larger volume of 100 mM unlabeled amino acid (final concentration) supplemented with outside buffer components. […] At such high concentrations, it is important to adjust all amino acid solutions to pH 7.4. Assays were initiated by addition of 0.5 μM [^3H]arginine to the amino acid buffer solution followed by the addition of SLC38A9.1 proteoliposomes or liposome controls.
For steady-state kinetics experiments, time points were collected as described above and to assess substrate specificity, competition experiments were collected at 75 min. For efflux experiments, SLC38A9.1 proteoliposomes or liposome controls were loaded with [^3H]arginine as described above for an import assay for 1.5 hrs. To remove external amino acids, the reactions were applied to PD10 columns pre-equilibrated with outside buffer, and time points were collected as described above. Scintillation counts from liposome controls were subtracted from that of SLC38A9.1 proteoliposomes.

[3] = Solubility limit of amino acid in the transport assay solution; format: physicochemical
Experimental: as §1

[4] = substrate: N=C(N)NCCC[C@H](N)C(=O)O; assay: Steady-state kinetics of [3H]arginine uptake by SLC38A9.1 proteoliposomes; format: biochemical, human; settings: other: [3H]arginine 0.5 μM plus increasing unlabeled arginine, 30° C.
Experimental: HEK-293T cells stably expressing FLAG-SLC38A9.1 were harvested as described above for immunoprecipitations, except cells were lysed in 40 mM HEPES pH 7.4, 0.5% Triton X-100, 1 mM DTT, and protease inhibitors. Following a 3 hr. immunoprecipitation, FLAG-affinity beads were washed twice for 5 min each in lysis buffer supplemented with 500 mM NaCl. Beads were equilibrated with inside buffer (20 mM MES pH 5, 90 mM KCl 10 mM NaCl) supplemented with 10% glycerol by washing them 5 times. FLAG-affinity purified SLC38A9.1 protein was eluted in glycerol-supplemented inside buffer containing 1 mg/mL FLAG peptide by rotation for 30 min. Protein was concentrated using Amicon centrifuge filters to about 1 mg/mL and snap-frozen in liquid nitrogen and stored at −80° C.
To form liposomes, chloroform-dissolved phosphatidylcholine (PC, 50 mg) was evaporated using dry nitrogen to yield a lipid film in a round bottom flask and desiccated overnight under vacuum. Lipids were hydrated in inside buffer at 50 mg/mL with light sonication in a water bath (Branson M2800H) and split into 100 μL aliquots in Eppendorf tubes. Aliquoted lipids were clarified using water bath sonication and recombined and extruded through a 100 nm membrane with 15 passes (Avanti 61000). […]

Molecule: N=C(N)NCCC[C@H](N)C(=O)O [arginine]
activation of mTORC1 by the amino acid in SLC38A9 knockouts vs control cells [1]: strongly repressed at all arginine concentrations

competition of radiolabelled arginine transport [2]: least effective competitor
Molecule: NCC(=O)O [glycine]

Molecule: N[C@@H](Cc1c[nH]cn1)C(=O)O [histidine]
competition of radiolabelled arginine transport [2]: competed radiolabelled arginine transport to similar degrees as arginine

solubility [3]: ~130 mM (≈ 17.1 mg/mL)
competition of radiolabelled arginine transport [2]: modest effect
Molecule: CC(C)C[C@H](N)C(=O)O [leucine]
activation of mTORC1 by the amino acid in SLC38A9 knockouts vs control cells [1]: only blunted

Molecule: NCCCC[C@H](N)C(=O)O [lysine]
competition of radiolabelled arginine transport [2]: competed radiolabelled arginine transport to similar degrees as arginine

B1: SLC38A9.1 (Homo sapiens) (protein)
chain: T1 sequence (Q8NBW4 1-561)
notes: made in house; host or cells: HEK-293T cells stably expressing FLAG-SLC38A9.1
Km [4]: 39 mM
kcat [4]: 0.03 s⁻¹
